Reference: patent publication US20050220907A1, “Implanted medical devices with anti-inflammatory coatings” (priority 2004, published 2005)

How the values were obtained:
[1] = Effect of olive kernel extract on absorption of tritiated chondroitin sulfate in vivo (serum radioactivity after oral capsule); parameters: species or system male Sprague-Dawley rats; conditions: serum radioactivity at 8 hours
Protocol: Chondroitin sulfate was tritiated by New England Nuclear Corp. to a specific activity of 4.3 mCi/ml.
Unlabeled chondroitin sulfate was dissolved in olive kernel extract at a ratio of about 55 w/v chondroitin sulfate powder to about 450 w/v of olive kernel extract (2.9% acidity as oleic acid, 1.03% water, 0.08% hexane). To this solution was added 20.2 microcuries of the labeled chondroitin sulfate. AAA gelatin capsules were filled with the resulting solution using an aluminum template molding device.
The laboratory animals (250 g male Sprague-Dawley rats) were kept overnight without food but with free access to water. One capsule containg the above-described chondroitin sulfate-olive kernel extract solution was given to each rat per os. Control animals were given the equivalent amount of chondroitin, but without olive kernel extract. The animals were then given free access to food. Serum radioactivity was measured 8 hours thereafter in a beta scintillation counter.

[2] = commercially available preparations, oral; cited from earlier work
[3] = Chondroitin sulfate solubility in oils; assay type: physicochemical; conditions: in codfish oil, corn oil and olive oil (from the flesh of the olive)
Excerpt: Parallel experiments with codfish oil, corn oil and olive oil (from the flesh of the olive) were comtemplated, but chondroitin sulfate solubility in these oils was insufficient to meet the requirements of the experiment.

dose of labeled chondroitin sulfate that reached the circulation ([1]; control rats, one capsule per os without olive kernel extract, n=3): about 3.9%+/−0.4%
dose of labeled chondroitin sulfate absorbed into the general circulation ([1]; rats, one capsule per os of chondroitin sulfate dissolved in olive kernel extract, n=4): about 14.3%+/−0.7%
chondroitin sulfate solubility in oils [3]: insufficient
Substance: chondroitin sulfate
chondroitin sulfate absorbed orally [2]: less than 5%
